# Results from US9260417B2, “Therapeutic methods and compositions involving allosteric kinase inhibition” (AMITECH THERAPEUTIC SOLUTIONS, INC., priority 2010, dated 2016).
# Key:
# [1] = molecular target: EGFR L858R (Homo sapiens (Human), UniProt P00533, L858R); assay: In vitro kinase panel (SelectScreen); assay type: biochemical
# Protocol: (§2) In vitro kinase screen and competitive binding assay. […] 11-point Kd curves were determined for hits identified during the initial screen.
# [2] = molecular target: KIT (Homo sapiens (Human), UniProt P10721); assay: KINOMEscan competitive binding assay
# Protocol: (§3) In vitro kinase screen and competitive binding assay. […] For the competitive binding assay, test compounds were screened at 10 μM against 70 diverse kinase targets for competitive binding using the KINOMEscan™ technology (Ambit Biosciences) (Karaman, et al. (2008) Nature biotechnology 26:127-132). 11-point Kd curves were determined for hits identified during the initial screen.
# [3] = molecular target: BRAF (Homo sapiens (Human), UniProt P15056); assay: In vitro kinase panel (SelectScreen); assay type: biochemical
# Protocol: as §2
# [4] = molecular target: ABL1 (Homo sapiens (Human), UniProt P00519); assay: In vitro kinase panel (SelectScreen); assay type: biochemical
# Protocol: as §2
# [5] = molecular target: T1, CSF1R (Homo sapiens (Human), UniProt P07333); assay: In vitro kinase panel (SelectScreen); assay type: biochemical
# Protocol: as §2
# [6] = system: HUVECs co-cultured with hTERT-human hepatic stellate cells; assay: Stellate cell/endothelial cell co-culture tube formation assay; assay type: cell-based; settings: […] 6, […] 3, 1.0 μM imatinib, 0.5 μM GW 5074
# Protocol: One representative panel from 3 independent experiments is shown. […] Scale bar=200 μm.
# The stellate cells were washed in PBS and mixed with early passage HUVECs (p<5) at a ratio of 1:4 and mixed into a 3.75 mg/ml Type 1 Rat tail collagen matrix (BD Biosciences) in M-199 media. 30 μl of this mixture was seeded onto each well of a half-area 96 well plate (Corning). The collagen was allowed to polymerize for 30 min at 37° C. and […] of complete EBM-2 media was added to each well. Various inhibitors were serially diluted in DMSO and subsequently added to duplicate wells 6 h post cell seeding. […] The endothelial tubes and the stellate cells were imaged at 48 h with a 10× objective on a confocal microscope. Images were collected across five fields per well.
# Stellate cell/endothelial cell tube formation assay and mouse matrigel model. This assay was performed as described in the SI Methods. The stellate cells were a gift from Dr. David Brenner and previously described (Schnabl, et al. (2002) Laboratory investigation; a journal of technical methods and pathology 82:323-333). […] The mouse matrigel model was performed as previously described (Eliceiri, et al. (1999) Molecular cell 4:915-924 5) and further details of immunohistochemistry and animal dosing can be found herein.
# To validate the findings of Example 10, a co-culture angiogenesis assay was utilized to evaluate similar combinations of PDGFR and RAF inhibitors. In the assay, HUVECs are mixed with hepatic stellate cells (a pericyte found in the perisinusoidal space of the liver) in a 3D-collagen gel. The co-culture produced endothelial tubes with pericyte contacts (from the stellate cells) that can be imaged and quantified as shown in FIGS. 4B and C.
# [7] = molecular target: FLT3 (Homo sapiens (Human), UniProt P36888); assay: KINOMEscan competitive binding assay
# Protocol: as §3
# [8] = system: MDA-MB231; assay: Tumor cell viability; assay type: cell-based, human; settings: Breast AC MDA-MB231, B-RAF/Ras
# Protocol: (§1) For XTT assays, cells were grown in 96-well plates overnight and all assays were conducted in growth medium will full serum and additives. Compounds were serially diluted in DMSO and then further diluted into the medium to give the appropriate concentration while minimizing precipitation associated with serial diluting in medium alone Inhibitors were added for 72 h and cell viability was quantified at 450 nm after the addition of 1 mg/ml XTT solution (Sigma-Aldrich) in phenol-red free DMEM medium containing […] (Sigma-Aldrich). Dose-response curves were plotted using GraphPad Prism software and EC50s were calculated using this program.
# [9] = system: HCT116; assay: Tumor cell viability; assay type: cell-based, human; settings: Colon HCT116, K-Ras
# Protocol: as §1
# [10] = Pharmacokinetic analysis in mice; assay type: in vivo
# [11] = molecular target: SRPK2 (Homo sapiens (Human), UniProt P78362); assay: KINOMEscan competitive binding assay; settings: 10 uM
# [12] = molecular target: p38-alpha (Homo sapiens (Human), UniProt Q16539); assay: KINOMEscan competitive binding assay; settings: 10 uM
# Protocol: (§4) For the competitive binding assay, test compounds were screened at 10 μM against 70 diverse kinase targets for competitive binding using the KINOMEscan™ technology (Ambit Biosciences) (Karaman, et al. (2008) Nature biotechnology 26:127-132). 11-point Kd curves were determined for hits identified during the initial screen.
# [13] = system: neointimal hyperplasia; assay: Mouse carotid artery wire-injury model of neointimal hyperplasia; assay type: in vivo, mice
# Protocol: (FIG. 11A) Mouse carotid arteries were wire-injured as described in the Methods. […] (FIG. 11C) The corresponding percent stenosis (reflecting luminal narrowing) was calculated as described herein, *p<0.01. Error bars are reported as ±SEM. (FIG. 11D) PDGFRβ autophosphorylation in the injured arteries was measured on day 14, 4 h post-dose.
# Restenosis is a process that commonly results from balloon angioplasty and/or stent placement resulting in eventual occlusion of arteries by a process described as neointimal hyperplasia (NIH). […] Therefore, the combination of PDGFRβ/B-RAF inhibition would be an ideal treatment for NIH. […] Mouse carotid arteries were wire-injured and treated the following day with 100 mg/kg, qd, via oral gavage. Representative sections of the injured arteries, stained with hematoxylin and eosin (FIG. 11A), were used to calculate the intimal/medial ratio—a measurement of the thickness of the inner two layers of the artery wall, which correlates with the size of the vessel lumen. […] As a pharmacodynamic endpoint, representative arteries were excised 4 h after the final dose and lysates were immunoblotted to detect activated PDGFRβ.
# [14] = molecular target: T1, CSF1R; assay: KINOMEscan competitive binding assay; settings: 10 uM
# Protocol: as §4
# [15] = molecular target: MYO3A (Homo sapiens (Human), UniProt Q8NEV4); assay: KINOMEscan competitive binding assay; settings: 10 uM
# [16] = molecular target: FGFR2 (Homo sapiens (Human), UniProt P21802); assay: KINOMEscan competitive binding assay; settings: 10 uM
# Protocol: as §4
# [17] = system: CHL-1; assay: Tumor cell viability; assay type: cell-based; settings: Melanoma CHL-1
# Protocol: as §1
# [18] = system: SK-MEL-28; assay: Tumor cell viability; assay type: cell-based; settings: Melanoma SK-MEL-28, B-RAF V600E
# Protocol: as §1
# [19] = system: SK-MEL-2; assay: Tumor cell viability; assay type: cell-based; settings: Melanoma SK-MEL-2, N-Ras
# Protocol: as §1
# [20] = system: R40P; assay: Tumor cell viability; assay type: cell-based; settings: Pancreatic (mouse spontaneous model) R40P, K-Ras
# Protocol: as §1
# [21] = system: HT29; assay: Tumor cell viability; assay type: cell-based; settings: Colon HT29, B-RAF V600E
# Protocol: as §1
# [22] = system: MCF7; assay: Tumor cell viability; assay type: cell-based; settings: Breast MCF7, PI3K
# Protocol: as §1
# [23] = molecular target: VEGFR2 (Homo sapiens (Human), UniProt P35968); assay: KINOMEscan competitive binding assay; settings: 10 uM
# Protocol: as §3
smiles,measurement,setting,value
Nc1cc(Oc2ccc(-c3nnc(Nc4cccc(C(F)(F)F)c4)[nH]3)cc2)ncn1 [Compound 3],% Inhibition at 10 μM,[1],−3%
same,Kd,[2],3.7 nM
same,% Inhibition at 10 μM,[3],17%
same,% Inhibition at 10 μM,[4],4%
same,% Inhibition at 10 μM,[5],79%
same,endothelial tube formation and % pericyte-covered tube length,[6],did not affect endothelial tube formation
same,Kd,[7],1.4 nM
CSc1nc(N)cc(Oc2ccc(-c3nnc(Nc4cccc(C(F)(F)F)c4)[nH]3)cc2)n1 [Compound 6],EC50,[8],480 nM
same,EC50,[9],400 nM
same,% Inhibition at 10 μM,[1],−10%
same,AUC0-12h,"[10]; 50 mg/kg, ip, bid",14700 ng·h/mL
same,T1/2,"[10]; 50 mg/kg, ip, bid",11.5 h
same,AUC0-24h,"[10]; 100 mg/kg, oral",8700 ng·h/mL
same,Cmax (printed C.),"[10]; 100 mg/kg, oral",4900 ng/mL
same,T1/2,"[10]; 100 mg/kg, oral",6.1 h
same,% Control,[2]; 10 uM,0%
same,% Control,[11],100%
same,% Inhibition at 10 μM,[3],−1%
same,% Control,[12],100%
same,% Inhibition at 10 μM,[4],3%
same,% Inhibition at 10 μM,[5],23%
same,percent stenosis,"[13]; 100 mg/kg, qd, oral gavage, 14 days",greatly reduced
same,PDGFRβ activation in injured arteries,[13]; 4 h after the final dose,inhibited PDGFRβ activation
same,% Control,[14],51%
same,endothelial tube formation and % pericyte-covered tube length,[6],dramatic reduction
same,% Control,[15],94%
same,% Control,[16],100%
same,EC50,[17],100 nM
same,EC50,[18],400 nM
same,EC50,[19],140 nM
same,EC50,[20],660 nM
same,EC50,[21],620 nM
same,EC50,[22],680 nM
same,% Control,[23],80%
same,% Control,[7]; 10 uM,2.8%
"CNC(=O)c1cc(Oc2ccc(NC(=O)Nc3ccc(Cl)c(C(F)(F)F)c3)cc2)ccn1 [sorafenib, reference compound]",EC50,"[8]; Homo sapiens, MDA-MB-231",> 10000 nM
same,EC50,"[9]; Homo sapiens, HCT-116",8210 nM
same,EC50,[17]; Homo sapiens,6100 nM
same,EC50,[18]; Homo sapiens,17600 nM
same,EC50,[19]; Homo sapiens,14300 nM
same,EC50,[20],9430 nM
same,EC50,"[21]; Homo sapiens, HT-29",> 20000 nM
same,EC50,[22]; Homo sapiens,> 20000 nM
